The structures appear in SMILES notation.

Results on 1 compound are retold here after BindingDB's records for doi:10.1007/bf00506193 (1984).

This assay addresses T1, Alpha-1A adrenergic receptor (Rattus norvegicus, UniProt P43140).
T1 sequence (P43140 whole entry): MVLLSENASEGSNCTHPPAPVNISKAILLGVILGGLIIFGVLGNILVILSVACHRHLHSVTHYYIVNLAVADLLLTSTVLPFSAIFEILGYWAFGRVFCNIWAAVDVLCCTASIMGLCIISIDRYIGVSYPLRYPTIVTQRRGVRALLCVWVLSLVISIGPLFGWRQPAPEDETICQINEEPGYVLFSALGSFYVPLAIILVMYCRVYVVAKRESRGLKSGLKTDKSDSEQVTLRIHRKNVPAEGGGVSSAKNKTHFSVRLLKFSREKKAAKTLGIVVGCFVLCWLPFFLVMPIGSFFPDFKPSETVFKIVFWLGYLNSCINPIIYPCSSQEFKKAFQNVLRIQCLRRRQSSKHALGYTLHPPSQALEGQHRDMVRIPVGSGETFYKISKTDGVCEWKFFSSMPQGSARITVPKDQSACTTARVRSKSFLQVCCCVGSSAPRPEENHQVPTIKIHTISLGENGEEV

Usually Ki stands for a measure of affinity in units of concentration, obtained from inhibition or displacement. Low values mean higher affinity, high ones lower affinity. Regarding `c1ccc2c(c1)OCC(C1=NCCN1)O2` (stereo unspecified), the affinity, expressed as Ki, was 91 nM.
